Measured values: patent US4103011A, “Novel penicillin compounds and process for preparation thereof” (priority 1976, dated 1978)
Values after ≈ are worked out from the molar mass of the structure shown. Structures can show the parent of a compound that is named as a salt. Where two headings read alike, the source gives them in different places.

What was measured:
[1] = test system: Escherichia coli P-5101; experiment: In vivo efficacy against systemic infection; parameters: species or system male mice (ddY); details: P5101, in Mus musculus, 168 h, twice, about 5 minutes and 6 hours after infection, read-out: ED50 (median effective dose)
Protocol: (§1) The contents in the vials (No. A and No. C) prepared in Example 17 were each dissolved in deionized water, and injections having various concentrations were prepared.
(§2) Compounds A, B, F, G, H and M were dissolved in deionized water.
(§3) Mice: male mice (ddY) weighting about 20g
(§4) Intraperitoneal infection with 50 to
(§5) of a bacterial suspension in tryptosoy
(§6) twice, about 5 minutes and 6 hours after
(§7) calculated in accordance with the Behrens-Kaerber method [Arch. Exp. Path

[2] = test system: Pseudomonas aeruginosa No. 12; experiment: In vivo efficacy against systemic infection; parameters: species or system male mice (ddY); details: NO.12, in Mus musculus, twice, about 5 minutes and 6 hours after infection, read-out: ED50 (median effective dose)
Protocol: as §1, §2, §3
Pseudomonas aeruginosa No. 12;
as §4, §5, §6
Pseudomonas aeruginosa No. 12
as §7

[3] = test system: Staphylococcus aureus No. 50774; experiment: In vivo efficacy against systemic infection; parameters: species or system male mice (ddY); details: NO.50774, in Mus musculus, 336 h, sc, twice, about 5 minutes and 6 hours after infection, read-out: ED50 (median effective dose)
Protocol: as §1
(§8) Compounds A, B, F, G, H and M were dissolved in deionized water. Compounds C, D, E and J were dissolved in an aqueous solution of sodium carbonate (pH 8-9) to prepare injections of various concentrations.
(§9) Each of the injections was administered to mice under the conditions described below, and the median effective doses (ED50) obtained are shown in Table II.
as §3
Staphylococcus aureus No. 50774;
Intravenous infection with 50 to 100
LD50 (about 5 × 10^8cells/mouse) of a
bacterial suspension in saline.
as §6
Staphylococcus aureus No. 50774 14 days
The numerals in the table show ED50 (mg/kg). ED50 values were
as §7

[4] = test system: Salmonella typhimurium S-9; experiment: In vitro antibacterial activity (MIC); format: cell-based; details: Salmonella enterica, read-out: minimum inhibitory concentration (MIC)
Source text: (§10) In vitro antibacterial activity against 20 strains of bacteria
(§11) The numerals in the table show minimum inhibitory concentrations (MIC)

[5] = test system: Shigella flexneri 2a; experiment: In vitro antibacterial activity (MIC); format: cell-based; details: read-out: minimum inhibitory concentration (MIC)
Source text: as §10, §11

[6] = test system: Escherichia coli NIHJ JC-2; experiment: In vitro antibacterial activity (MIC); format: cell-based
Source text: as §10, §11

[7] = test system: Pseudomonas aeruginosa No.12; experiment: In vitro antibacterial activity (MIC); format: cell-based; details: Pseudomonas aeruginosa No.12; read-out: minimum inhibitory concentration (MIC)
Source text: as §10, §11

[8] = test system: Staphylococcus aureus 209P JC-1; experiment: In vitro antibacterial activity (MIC); format: cell-based; details: Staphylococcus aureus 209P JC-1; read-out: minimum inhibitory concentration (MIC)
Source text: as §10, §11

[9] = test system: Salmonella enteritidis No. 1891; experiment: In vitro antibacterial activity (MIC); format: cell-based; details: Salmonella enterica, read-out: minimum inhibitory concentration (MIC)
Source text: as §10, §11

[10] = test system: Shigella flexneri 4a P-330; experiment: In vitro antibacterial activity (MIC); format: cell-based; details: 4AP330, read-out: minimum inhibitory concentration (MIC)
Source text: as §10, §11

[11] = test system: Staphylococcus aureus No. 50774; experiment: In vitro antibacterial activity (MIC); format: cell-based
Source text: as §10, §11

[12] = test system: Escherichia coli P-5101; experiment: In vitro antibacterial activity (MIC); format: cell-based; details: Escherichia coli, P5101, read-out: minimum inhibitory concentration (MIC)
Source text: as §10, §11

[13] = test system: Escherichia coli P-140a; experiment: In vitro antibacterial activity (MIC); format: cell-based
Source text: as §10, §11

[14] = test system: Streptococcus pyogenes 65A; experiment: In vitro antibacterial activity (MIC); format: cell-based; details: Streptococcus pyogenes 65A; read-out: minimum inhibitory concentration (MIC)
Source text: as §10, §11

[15] = test system: Enterobacter cloacae P-2540; experiment: In vitro antibacterial activity (MIC); format: cell-based
Source text: as §10, §11

[16] = test system: Klebsiella pneumoniae No. 13; experiment: In vitro antibacterial activity (MIC); format: cell-based; details: Klebsiella pneumoniae No. 13; read-out: minimum inhibitory concentration (MIC)
Source text: as §10, §11

[17] = test system: Streptococcus faecalis P-2473; experiment: In vitro antibacterial activity (MIC); format: cell-based; details: Enterococcus faecalis
Source text: as §10, §11

[18] = test system: Proteus morganii Kono; experiment: In vitro antibacterial activity (MIC); format: cell-based; details: Morganella morganii, read-out: minimum inhibitory concentration (MIC)
Source text: as §10, §11

[19] = test system: Serratia mercescens IFO 3736; experiment: In vitro antibacterial activity (MIC); format: cell-based
Source text: as §10, §11

[20] = test system: Pseudomonas aeruginosa Tsuchijima; experiment: In vitro antibacterial activity (MIC); format: cell-based; details: Pseudomonas aeruginosa Tsuchijima; read-out: minimum inhibitory concentration (MIC)
Source text: as §10, §11

[21] = test system: Corynebacterium pyogenes C-21; experiment: In vitro antibacterial activity (MIC); format: cell-based; details: Rhodococcus (subgen. Prescottella) equi, C21; Corynebacterium pyogenes C-21; read-out: minimum inhibitory concentration (MIC)
Source text: as §10, §11

[22] = test system: Proteus rettgeri P-2503; experiment: In vitro antibacterial activity (MIC); format: cell-based; details: Providencia rettgeri, P2503; Proteus rettgeri P-2503; read-out: minimum inhibitory concentration (MIC)
Source text: as §10, §11

[23] = test system: Proteus mirabilis P-2381; experiment: In vitro antibacterial activity (MIC); format: cell-based
Source text: as §10, §11

[24] = in vivo; details: mouse
[25] = test system: bacteria (systemic infection); experiment: In vivo efficacy against systemic infection, overall conclusions; parameters: species or system male mice (ddY); details: Table II
Protocol: as §1, §8, §9

[26] = test system: 20 strains of bacteria; experiment: In vitro antibacterial activity, overall conclusions; format: cell-based
Source text: as §10

[27] = Salmonella enteritidis No. 1891
[28] = Staphylococcus aureus No. 50774, read-out: minimum inhibitory concentration (MIC)
[29] = P2540, Enterobacter cloacae P-2540, read-out: minimum inhibitory concentration (MIC)
[30] = P2473, read-out: minimum inhibitory concentration (MIC)
[31] = P2381, Proteus mirabilis P-2381, read-out: minimum inhibitory concentration (MIC)
[32] = Escherichia coli, NIHJJC2, read-out: minimum inhibitory concentration (MIC)
[33] = Serratia, IFO3736, read-out: minimum inhibitory concentration (MIC)

| Compound | ED50 ([1]; iv) [mg/kg] | ED50 ([1]; sc) [mg/kg] | ED50 ([2]; iv) [mg/kg] | ED50 ([2]; sc) [mg/kg] | ED50 [3] [mg/kg] | MIC ([4]; Salmonella typhimurium S-9) [µg/mL] | MIC [5] [µg/mL] | MIC [7] [µg/mL] | MIC [8] [µg/mL] | MIC [9, 27] [µg/mL] | MIC [10] [µg/mL] | MIC [11, 28] [µg/mL] | MIC [12] [µg/mL] | minimum inhibitory concentration (MIC) [13] [µg/mL] | MIC [14] [µg/mL] | MIC [15, 29] [µg/mL] | MIC [16] [µg/mL] | MIC [20] [µg/mL] | MIC [21] [µg/mL] | MIC [22] [µg/mL] | also measured |
| --- | --- | --- | --- | --- | --- | --- | --- | --- | --- | --- | --- | --- | --- | --- | --- | --- | --- | --- | --- | --- | --- |
| CN1CCN(c2ncc3c(=O)c(C(=O)N[C@@H](C(=O)N[C@@H]4C(=O)N5[C@@H]4SC(C)(C)[C@@H]5C(=O)O)c4ccc(O)cc4)c[nH]c3n2)CC1 [Compound A, D-α-[5,8-Dihydro-2-(4-methyl-1-piperazinyl)-5-oxopyrido[2,3-d]pyrimidine-6-carboxamido]-p-hydroxybenzylpenicillin sodium salt] | 0.7 | 1 | 2.6 | 3.6 | 3.7 | 0.2 | 0.78 | 1.56 | 1.56 | 0.2 | 0.78 | 3.13 | 0.39 | 6.25 | < 0.1 | 3.13 | 6.25 | 0.39 | 0.78 | 6.25 | MIC ([6]; NIHJJC2, Escherichia coli NIHJ JC-2, read-out: minimum inhibitory concentration (MIC)): 0.78 µg/mL; MIC [17, 30]: 6.25 µg/mL; MIC ([18]; Proteus morganii Kono): 3.13 µg/mL; MIC ([19]; IFO3736, Serratia mercescens IFO 3736, read-out: minimum inhibitory concentration (MIC)): 3.13 µg/mL; MIC [23, 31]: 3.13 µg/mL; LD50 at 168 h ([24]; iv): 1120 mg/kg; selectivity ratio ([24]; iv): 432; LD50 at 168 h ([24]; sc): 1500 mg/kg; selectivity ratio ([24]; sc): 417; antibacterial activity in vivo (in words) [25]: almost comparable |
| CC1(C)S[C@@H]2[C@H](NC(=O)[C@H](N)c3ccc(O)cc3)C(=O)N2[C@H]1C(=O)O [Compound M, D-α-Amino-p-hydroxybenzylpenicillin sodium salt] | 3.2 | 3.4 | – | > 200 | 0.34 | 0.78 | 6.25 | > 200 | 0.1 | 0.39 | 25 | 0.1 | 6.25 | > 200 | 0.025 | > 200 | 200 | 200 | 0.39 | 50 | MIC [6, 32]: 6.25 µg/mL; MIC ([17]; P2473, Streptococcus faecalis P-2473, read-out: minimum inhibitory concentration (MIC)): 0.78 µg/mL; MIC ([18]; Proteus morganii Kono): 200 µg/mL; MIC [19, 33]: 50 µg/mL; MIC [23, 31]: 1.56 µg/mL; antibacterial activity (in words) ([26]; Ampicillin-resistant strains): does not exhibit antibacterial activity; antibacterial activity (in words) ([26]; E. coli P-140a, Klebsiella pneumonia, Enterobacter cloacae, Pseudomonas aeruginosa, Serratia marcescens): substantially ineffective; antibacterial activity (in words) ([26]; bacteria of the genus Pseudomonas): substantially ineffective |
| CCn1cc(C(=O)O)c(=O)c2cnc(N3CCNCC3)nc21 [Compound J, 5,8-Dihydro-8-ethyl-2-(1-piperazinyl)-5-oxopyrido[2,3-d]pyrimidine-6-carboxylic acid] | 4.6 | 6.3 | 42.7 | 37.7 | > 50 | – | 3.13 (≈ 10.3 µM) | 25 (≈ 82.4 µM) | 12.5 (≈ 41.2 µM) | – | 1.56 (≈ 5.14 µM) | – | 3.13 (≈ 10.3 µM) | – | > 100 | – | 6.25 (≈ 20.6 µM) | 12.5 (≈ 41.2 µM) | 25 (≈ 82.4 µM) | 6.25 (≈ 20.6 µM) | MIC ([4]; TYPHIMURIUM): 3.13 µg/mL (≈ 10.3 µM); MIC [6, 32]: 1.56 µg/mL (≈ 5.14 µM); MIC ([9]; ENTERITIDIS): 1.56 µg/mL (≈ 5.14 µM); MIC ([11]; Staphylococcus aureus, NO.50774, read-out: minimum inhibitory concentration (MIC)): 25 µg/mL (≈ 82.4 µM); MIC ([13]; Escherichia coli, read-out: minimum inhibitory concentration (MIC)): 3.13 µg/mL (≈ 10.3 µM); MIC ([15]; Enterobacter cloacae, P2540, read-out: minimum inhibitory concentration (MIC)): 1.56 µg/mL (≈ 5.14 µM); MIC [17, 30]: > 200 µg/mL; MIC [18]: 3.13 µg/mL (≈ 10.3 µM); MIC [19, 33]: 6.25 µg/mL (≈ 20.6 µM); MIC ([23]; Proteus mirabilis, P2381, read-out: minimum inhibitory concentration (MIC)): 3.13 µg/mL (≈ 10.3 µM); antibacterial activity (in words) ([26]; against Gram-positive bacteria): inferior antibacterial activity against Gram-positive bacteria; antibacterial activity (in words) ([26]; against Gram-positive bacteria, listed as Pipemidic acid): does not show any marked antibacterial activity against Gram-positive bacteria |
